Test [1] has as its system human spermatozoa. The test can be described thus: Superoxide assay, luminol-based Diogenes chemiluminescence, whole spermatozoa. It is filed as cell-based. The conditions noted are these: for effect on ionomycin-induced superoxide chemiluminescence signal: 1 μM ionomycin; for effect on ionomycin-induced superoxide chemiluminescence signal / effect on H2O2-induced superoxide chemiluminescence signal: SOD 400 U/ml, DPI 10 μM, BAPTA 100 μM; for effect on H2O2-induced superoxide chemiluminescence signal: 100 μM H2O2, GKT136901 0.5 μM. The source says: (§1) Human semen samples were obtained from patient donors as a part of their clinical evaluation for fertility and reproductive health status. Portions of the samples not required for clinical analyses were de-identified and made available for the research protocols described. Under these conditions, the Institutional Review Board determined that the study is exempt from requirements for protocol approval and informed consent. Semen was collected by masturbation into sterile plastic containers and allowed to liquefy for at least 30 min before being processed. The samples were centrifuged (500 g, 15 min) to separate the seminal plasma from spermatozoa, and the pellet washed twice in phosphate-buffered normal saline pH 7 with 10 mM glucose (PBS-G). The spermatozoa were then counted in a hemocytometer chamber, resuspended in PBS-G at 10^9/ml, and used for superoxide assays. Sperm samples containing leukocytes detected by microscopic examination were excluded from the study. For selected experiments, motile spermatozoa were collected using the swim-up procedure (Vijayakumar et al. (1986) Arch. Androl. 17, 223-230; Parrish and Foote (1987) J. Androl. 8, 259-266). Briefly, the spermatozoa were sedimented by centrifugation (500 g, 15 min) and the tube was then incubated upright for 60 min at 37° C. Motile spermatozoa that progressed from the pellet into the supernatant (swim-up fraction) were collected by aspiration and counted.
Superoxide generation was measured using a luminol-based chemiluminescence assay (Diogenes reagent, National Diagnostics, Atlanta, Ga.). […] Spermatozoa were suspended at 10^9/ml in PBS-G. A 100 μl aliquot of the Diogenes reagent was mixed with 2×10^7 spermatozoa and incubated at 37° C. for 2-4 minutes. Superoxide generation was measured at baseline and after stimulation with ionomycin (1 μM), phorbol myristate acetate (PMA, 1 μg/ml), or H2O2 (100 μM and other concentrations as indicated). Chemiluminescence was measured every 30-60 sec for up to 10-15 min using a Clarity™ BioTek luminometer and an integration time of 5 sec.
Spermatozoa were pre-incubated for 5 min prior to the superoxide assay with 400 U/ml superoxide dismutase (SOD), 10 μM diphenylene iodonium (DPI), or 100 μM 1,2-Bis (2-aminophenoxy) ethane-N,N,N′,N′-tetraacetic acid (BAPTA). […] In some experiments, cells were pre-exposed to the NOX inhibitor 2-(2-chlorophenyl)-4-methyl-5-(pyridin-2-ylmethyl)-1H-pyrazolo[4,3-c]pyridine-3,6(2H,5H)-dione (GKT136901, 0.5 μM and other concentrations as indicated) for 10 min before exposure to either H2O2 or PMA.

For test [2], the system named is human spermatozoa. The test can be described thus: Swim-up procedure, sperm motility. To be noted: GKT136901 0.5 μM or DPI 10 μM; 100 μM H2O2. In kind it is cell-based.
Excerpt: as §1

Test [3] deals with HV1 proton channels in K562 and K562/NOX5 cells. The test can be described thus: Perforated-patch clamp recording of proton currents. In kind it is cell-based, human. The source says: Micropipettes were pulled in several stages using a Flaming-Brown automatic pipette puller (Sutter Instruments, San Rafael, Calif.) from 7052 glass (Garner Glass Co., Claremont, Calif., USA), coated with Sylgard 184 (Dow Corning Corp., Midland, Mich.), heat polished to a tip resistance between 2 and 10 MΩ. Electrical contact with the pipette solution was achieved using a chloride silver wire. The reference electrode was made from an Ag—AgCl wire connected to the bath through an agar bridge made with Ringer solution (160 mM NaCl, 4.5 mM KCl, 2 mM CaCl2, 1 mM MgCl2, 5 mM Hepes adjusted to pH 7.4). Current signal from the Axopatch 200B (Axon Instruments, Foster City, Calif.) was recorded on PC through a Lab View SCB-68 (National Instruments, Austin, Tex.). Further data analysis was made with Origin 7.5. Seals were formed in Ringer solution in the bath, and the potential was zeroed when the pipette was in contact with the cell. Most measurements were done between 21 and 25° C.
K562 cells were transferred on chips or pipette into the recording chamber. To leave internal signaling pathways undisturbed, the perforated patch configuration was used. Low access resistance was usually reached after 5-10 minutes. The perforated patch recording bath and pipette solution contained 50 mM NH^4+ in the form of (NH4)2SO4, 2 mM MgCl2, 5 mM Bes or Pipes buffer, and 1 mM EGTA adjusted to pH 7.0 with TMAOH. […]

The target in another test is T1, NOX5 (Homo sapiens, UniProt Q96PH1).
T1 sequence (Q96PH1 1-765): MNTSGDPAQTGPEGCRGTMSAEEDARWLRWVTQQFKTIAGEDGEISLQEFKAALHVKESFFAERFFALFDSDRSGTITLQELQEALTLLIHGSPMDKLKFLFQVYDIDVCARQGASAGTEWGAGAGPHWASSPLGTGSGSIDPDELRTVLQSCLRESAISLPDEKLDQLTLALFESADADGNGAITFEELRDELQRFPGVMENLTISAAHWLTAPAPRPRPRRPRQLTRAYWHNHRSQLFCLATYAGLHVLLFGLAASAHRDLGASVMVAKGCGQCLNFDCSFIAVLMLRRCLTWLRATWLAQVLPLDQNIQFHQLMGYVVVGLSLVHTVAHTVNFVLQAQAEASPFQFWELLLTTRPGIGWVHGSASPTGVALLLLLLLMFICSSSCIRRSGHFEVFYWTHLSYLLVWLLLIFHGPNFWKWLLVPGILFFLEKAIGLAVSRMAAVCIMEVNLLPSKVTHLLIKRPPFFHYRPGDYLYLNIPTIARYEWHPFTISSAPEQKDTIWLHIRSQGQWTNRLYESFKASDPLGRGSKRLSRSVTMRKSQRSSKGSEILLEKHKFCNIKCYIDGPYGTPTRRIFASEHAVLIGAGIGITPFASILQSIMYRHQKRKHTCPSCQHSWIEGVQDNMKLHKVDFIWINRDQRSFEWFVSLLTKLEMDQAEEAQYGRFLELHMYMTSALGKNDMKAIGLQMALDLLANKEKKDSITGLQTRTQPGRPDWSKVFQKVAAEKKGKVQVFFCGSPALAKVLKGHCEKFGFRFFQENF
To be noted: same conditions as Laleu et al.; GenKyoTex, personal communication; read-out: inhibitory constant for NOX5; cited from earlier work.

The target in the next test is T2, NOX2 (Homo sapiens, UniProt P04839).
T2 sequence (P04839 2-570 limits assumed): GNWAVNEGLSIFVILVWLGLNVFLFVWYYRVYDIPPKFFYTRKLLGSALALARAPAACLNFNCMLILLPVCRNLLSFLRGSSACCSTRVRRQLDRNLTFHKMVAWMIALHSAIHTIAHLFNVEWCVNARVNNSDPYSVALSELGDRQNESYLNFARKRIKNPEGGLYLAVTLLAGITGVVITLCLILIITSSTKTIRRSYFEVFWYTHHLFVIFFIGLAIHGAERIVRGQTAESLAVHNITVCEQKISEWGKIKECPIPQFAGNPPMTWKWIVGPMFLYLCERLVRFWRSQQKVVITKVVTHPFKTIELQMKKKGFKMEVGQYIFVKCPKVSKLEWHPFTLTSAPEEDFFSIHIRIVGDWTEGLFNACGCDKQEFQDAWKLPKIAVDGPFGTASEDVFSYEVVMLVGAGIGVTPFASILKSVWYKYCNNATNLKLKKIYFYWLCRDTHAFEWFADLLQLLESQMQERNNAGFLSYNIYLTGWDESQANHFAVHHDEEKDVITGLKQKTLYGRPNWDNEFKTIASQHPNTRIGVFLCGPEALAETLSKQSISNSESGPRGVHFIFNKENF
T2 sequence (P13498 1-195 partner): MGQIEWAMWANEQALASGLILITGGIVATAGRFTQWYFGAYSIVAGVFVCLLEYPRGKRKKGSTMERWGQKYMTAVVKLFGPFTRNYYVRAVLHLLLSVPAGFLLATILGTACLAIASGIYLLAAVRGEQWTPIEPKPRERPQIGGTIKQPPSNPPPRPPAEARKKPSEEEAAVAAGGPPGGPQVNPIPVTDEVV
To be noted: NOX1 and NOX4 versus NOX2; cited from earlier work.

The next test concerns the target T3, NOX1 (Homo sapiens, UniProt Q9Y5S8).
T3 sequence (Q9Y5S8 1-564): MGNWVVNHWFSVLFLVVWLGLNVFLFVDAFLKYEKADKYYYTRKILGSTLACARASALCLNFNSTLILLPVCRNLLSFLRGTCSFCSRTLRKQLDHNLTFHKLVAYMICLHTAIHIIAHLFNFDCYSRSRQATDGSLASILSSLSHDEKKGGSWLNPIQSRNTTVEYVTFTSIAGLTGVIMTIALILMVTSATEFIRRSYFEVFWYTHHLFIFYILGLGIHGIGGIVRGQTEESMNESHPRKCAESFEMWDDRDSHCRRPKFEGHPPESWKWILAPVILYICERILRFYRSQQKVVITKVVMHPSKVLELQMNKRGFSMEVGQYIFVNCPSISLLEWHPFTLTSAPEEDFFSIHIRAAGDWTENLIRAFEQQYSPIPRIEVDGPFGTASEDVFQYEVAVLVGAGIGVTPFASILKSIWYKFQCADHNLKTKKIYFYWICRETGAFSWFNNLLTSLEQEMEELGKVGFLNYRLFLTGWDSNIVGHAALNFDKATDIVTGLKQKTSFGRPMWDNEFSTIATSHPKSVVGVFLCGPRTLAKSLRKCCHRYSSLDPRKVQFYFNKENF
T3 sequence (P13498 1-195 partner): T2 sequence (P13498 1-195 partner)
To be noted: cited from earlier work.

The text below walks through data of patent US10564168B2, “Method for treating male infertility based on NOX5 protein levels in sperm” (priority 2013, dated 2020).

Turning to `O=C(O)CN(CC(=O)O)c1ccccc1OCCOc1ccccc1N(CC(=O)O)CC(=O)O` [BAPTA, 1,2-Bis (2-aminophenoxy) ethane-N,N,N′,N′-tetraacetic acid], in the test with human spermatozoa [1], the “effect on ionomycin-induced superoxide chemiluminescence signal” value is given as “blocked” and the “effect on H2O2-induced superoxide chemiluminescence signal” value is “nearly completely abrogated”.

As for `c1ccc2c(c1)[I+]c1ccccc1-2` [DPI, diphenylene iodonium], in the test with human spermatozoa [1], the “effect on ionomycin-induced superoxide chemiluminescence signal” value was “blocked” and the “effect on H2O2-induced superoxide chemiluminescence signal” value is “nearly completely abrogated”. The “effect of pre-incubation on the H2O2 effect on motility” value in the test with human spermatozoa [2] is “abrogated”.

For `CN(C)CCCn1cc(C2=C(c3c[nH]c4ccccc34)C(=O)NC2=O)c2ccccc21` [GFX, GF109203X], in test [3] (GFX 3 μM after 60 nM PMA), the “effect on PMA response of proton channels” value was “Most features of the PMA response of proton channels were reversed”.

On to `Cc1c2c(=O)n(-c3ccccc3Cl)[nH]c2cc(=O)n1Cc1ccccn1` [GKT136901, 2-(2-chlorophenyl)-4-methyl-5-(pyridin-2-ylmethyl)-1H-pyrazolo[4,3-c]pyridine-3,6(2H,5H)-dione], for which the Ki on NOX5 was 0.45 ± 0.01 µM; at NOX1, 0.16 ± 0.01 µM. Further, the “effect on PMA-stimulated superoxide production” value in the test on human spermatozoa [1] (1 μg/ml PMA) is reported as “inhibited the stimulation of superoxide production by PMA in a concentration-dependent manner”. In addition, the “effect on H2O2-induced superoxide chemiluminescence signal” value with human spermatozoa [1] was “nearly completely abrogated”. Besides, in the test on human spermatozoa [1] (human spermatozoa versus human neutrophils), the “potency in inhibiting PMA-stimulated superoxide production, sperm cells as compared with neutrophils” value is on record as approximately 10 fold. Moreover, the “effect of pre-incubation on the H2O2 effect on motility” value in the test with human spermatozoa [2] is given as “abrogated”. Moreover, at NOX2, the “selectivity over NOX2” value is approximately 9 fold.

In the case of `CCCCCCCCCCCCCC(=O)O[C@@H]1[C@@H](C)[C@@]2(O)[C@@H](C=C(CO)C[C@]3(O)C(=O)C(C)=C[C@@H]23)[C@@H]2C(C)(C)[C@]12OC(C)=O` [PMA, phorbol myristate acetate], the “response of proton channels to stimulation” value in test [3] (60 nM PMA) is on record as “enhanced gating mode”.

Turning to `C[C@H](CCC(=O)O)C[C@H](C)C[C@H](C)C(=O)/C=C(\O)[C@H](C)C[C@H](C)C/C=C/[C@@H](C)[C@@H](O)[C@@H](C)[C@@H](O)C[C@@H]1CC[C@@](C)([C@H]2CC[C@@](C)([C@@H](C)O)O2)O1` [ionomycin], the “induction of superoxide production by spermatozoa” value in the test with human spermatozoa [1] (ionomycin 1 μM, PMA 1 μg/ml or H2O2 100 μM, 10 min) is recorded as “induced vigorous superoxide production”.
